These are literature values, as cited in US11517536B2, “Pharmaceutical composition comprising pomalidomide” (SYNTHON B.V., priority 2016, dated 2022).

Take `Nc1cccc2c1C(=O)N(C1CCC(=O)NC1=O)C2=O` (centres unmarked) [Pomalidomide, 4-amino-2-(2,6-dioxopiperidin-3-yl)isoindole-1,3-dione]: the solubility result is given as “low”. Besides, the solubility in water entry (drug substance, in water) is given as “practically insoluble”.
